Experimental data published in patent publication US20240083998A1, “PREVENTION AND TREATMENT OF STEROID-RESISTANT OR GUT GRAFT-VERSUS-HOST DISEASE (GVHD)” (CIY OF HOPE, priority 2021, published 2024).

System: BALB/c recipients
Experimental: Splenocytes and T cell depleted bone marrow cells from donors were injected via tail vein into recipients 6-8 hours after irradiation. […] Depletion of T cells from the bone marrow was accomplished by using biotin-conjugated anti-CD4 and anti-CD8 mAbs, and streptavidin Microbeads (Miltenyi Biotec, Germany), followed by passage through an autoMACS Pro cell sorter (Miltenyi Biotec, Germany). Microbeads (Ly-2, Miltenyi Biotec, Germany) were used for to purify CD8^+T cell, and purity was>99%. The assessment and scoring of clinical signs of GVHD have been described in previous publications^60.
ELISA: Reg3γ(antibodies online), ST2 (R&D system) and sTNFR1 (Thermo Scientific) in serum were measured by enzyme-linked immune sorbent assay (ELISA) according to manufacturer's protocol. Serum was collected and spun down at 2000 rpm for 10 min at 4° C. Clear supernatant was collected and stored at −20° C. until ELISA analysis. […]
Histological analysis: Tissue specimens were fixed in formalin before embedding in paraffin blocks, sectioned and stained with H&E. Slides were examined at 100× or 200× magnification and visualized with a Zeiss Observer II. […] For Paneth cell quantification, a total of 9 pictures from 3 different locations of the H&E-stained slides from one mouse were taken under 200× magnification, and total Paneth cell and crypt numbers were counted, Paneth cell numbers per crypt are shown. […]

In the case of `C[C@@H]1C[C@H]2[C@@H]3CCC4=CC(=O)C=C[C@]4(C)[C@@]3(F)[C@@H](O)C[C@]2(C)[C@@]1(O)C(=O)CO` [DEX, Dexamethasone], the “IL-17A+IL-22−CD4+Th17 and IL-17A+IL-22−CD8+Tc17 cells among CD4+ and CD8+T cells” value (recipients treated with DEX, 7 days after HCT) was 1-5% and the “survival after HCT” value (single injection 5 mg/Kg on day 3 (1-DEX), mild clinical GVHD) was “up to 20 days”.
